According to patent US6444685B1, “N-(4-sulfonylaryl)Cyclylamine 2-hydroxyethylamines as beta-3 adrenergic receptor agonists” (Wyeth, priority 2000, dated 2002):

Experiments:
Format in all cases: cell-based
[1] = target: T1, human β3 adrenergic receptor (Homo sapiens, UniProt P13945); assay: cAMP accumulation (SPA) in CHO cells transfected with human β3 adrenergic receptor; details: for EC50: CHO cells expressing human β3-AR, cAMP, 30 min incubation, 10^−9 M to 10^−5 M, read-out: beta-3 EC50; for beta-3 (IA) maximal response relative to isoproterenol: IA = % activity compound / % activity isoproterenol at 10^−5 M, CHO human β3 cells
T1 construct: Full length β3 AR clones (402 amino acids) containing the last 6 amino acids of hβ3— AR are prepared; expressed in transfected cells; host or cells: CHO cells
T1 sequence (P13945 whole entry): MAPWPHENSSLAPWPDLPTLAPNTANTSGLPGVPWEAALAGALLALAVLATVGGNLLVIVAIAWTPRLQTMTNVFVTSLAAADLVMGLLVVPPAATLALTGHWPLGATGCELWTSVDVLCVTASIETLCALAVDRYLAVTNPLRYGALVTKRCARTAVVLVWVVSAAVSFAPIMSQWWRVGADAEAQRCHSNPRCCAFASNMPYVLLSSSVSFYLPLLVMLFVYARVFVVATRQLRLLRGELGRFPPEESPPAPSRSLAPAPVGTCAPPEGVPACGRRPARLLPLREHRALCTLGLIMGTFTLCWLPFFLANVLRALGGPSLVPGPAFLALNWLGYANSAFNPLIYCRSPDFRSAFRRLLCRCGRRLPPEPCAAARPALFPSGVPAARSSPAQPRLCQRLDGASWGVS
Experimental: (§1) The ability of compounds of this invention to treat or inhibit disorders related to insulin resistance or hyperglycemia was established with representative compounds of this invention in the following standard pharmacological test procedures, which measured the binding selectivity to the β1, β2, and β3 adrenergic receptors. Binding to the receptors was measured in Chinese Hamster ovary (CHO) cells that were transfected with adrenergic receptors. The following briefly summarizes the procedures used and results obtained.
Cloning of Human β3-AR Genomic DNA: cDNA was constructed by ligating four polymerase chain reaction (PCR) products using the following primers: an ATG-Narl fragment, sense primer 5′-[…]3′ and anti-sense primer 5′[…]3′; a Narl-Accl fragment, 5′[…]3′ as sense and 5′[…]3′ as anti-sense primer; an Accli-Styl fragment, sense primer 5′[…]3′ and anti-sense primer 5′[…]3′ and a Styl-TAG fragment, with sense primer 5′[…]3′ and anti-sense primer 5′[…]3′. The corresponding primer sequences are described in Mantzoros, C. S., et.al., Diabetes 45: 909-914 (1996). The four fragments are ligated into a pUC 18 plasmid (Gibco-BRL) and sequenced. Full length β3 AR clones (402 amino acids) containing the last 6 amino acids of hβ3— AR are prepared with the β3-βARpcDNA3from ATTC.
(§2) Binding Procedure: Clones expressing receptor levels of 70 to 110 fmoles/mg protein were used in the test procedures. CHO cells were grown in 24-well tissue culture plates in Dulbecco's Modified Eagle Media with 10% fetal bovine serum, MEM non-essential amino acids, Penicillin-Streptompycin and Geneticin. On the day of test procedure, growth medium was replaced with preincubation media (Dulbecco's Modified Eagle Media and incubated for 30 minutes at 37° C. Preincubation medium was replaced with 0.2 ml treatment medium containing DMEM media containing 250 μM IBMX (isobutyl-1-methylxantine) plus 1 mM ascorbic acid with test compound dissolved in DMSO. Test compounds were tested over a concentration range of 10^−9 M to 10^−5 M for β3 cells and 10^−8 to 10^−4 M for β1 and β2 transfected cells. Isoproterenol (10^−5 M) was used as an internal standard for comparison of activity. Cells were incubated at 37° C. on a rocker for 30 min with the β3 cells and 15 min for β1 and β2 cells. Incubation was stopped with the addition of 0.2N HCl and neutralized with 2.5N NaOH. The plates, containing the cells and neutralized media, were stored at −20 degrees celsius until ready to test for cAMP using the SPA test kit (Amersham).
(§3) Data Analysis and Results: Data collected from the SPA test procedure were analyzed as per cent of the maximal isoproterenol response at 10^−5 M. Activity curves were plotted using the SAS statistical and graphics software. EC50 values were generated for each compound and the maximal response (IA) developed for each compound is compared to the maximal response of isoproternol at 10^−5 M from the following formula:
(§4) IA=% activity compound/% activity isoproterenol

[2] = target: T2, human β2-adrenergic receptor (Homo sapiens, UniProt P07550); assay: cAMP accumulation (SPA) in CHO cells transfected with human β2 adrenergic receptor; details: for EC50: CHO cells transfected with human β2-AR, cAMP, 15 min incubation, 10^−8 to 10^−4 M, read-out: beta-2 EC50; for beta-2 (IA) maximal response relative to isoproterenol: IA = % activity compound / % activity isoproterenol at 10^−5 M, CHO human β2 cells
T2 construct: expressed in transfected cells; host or cells: CHO cells
Experimental: as §1
(§5) Transfection of CHO cells with β1 and β2 adrenergic receptors: CHO cells were transfected with human β1- or β2-adrenergic receptors as described in Tate, K. M., Eur. J. Biochem., 196:357-361 (1991).
as §2, §3, §4

[3] = target: T3, human β1-adrenergic receptor (Homo sapiens, UniProt P08588); assay: cAMP accumulation (SPA) in CHO cells transfected with human β1 adrenergic receptor; details: for EC50: CHO cells transfected with human β1-AR, cAMP, 15 min incubation, 10^−8 to 10^−4 M, read-out: beta-1 EC50; for beta-1 (IA) maximal response relative to isoproterenol: IA = % activity compound / % activity isoproterenol at 10^−5 M, CHO human β1 cells
T3 construct: expressed in transfected cells; host or cells: CHO cells
T3 sequence (P08588 whole entry): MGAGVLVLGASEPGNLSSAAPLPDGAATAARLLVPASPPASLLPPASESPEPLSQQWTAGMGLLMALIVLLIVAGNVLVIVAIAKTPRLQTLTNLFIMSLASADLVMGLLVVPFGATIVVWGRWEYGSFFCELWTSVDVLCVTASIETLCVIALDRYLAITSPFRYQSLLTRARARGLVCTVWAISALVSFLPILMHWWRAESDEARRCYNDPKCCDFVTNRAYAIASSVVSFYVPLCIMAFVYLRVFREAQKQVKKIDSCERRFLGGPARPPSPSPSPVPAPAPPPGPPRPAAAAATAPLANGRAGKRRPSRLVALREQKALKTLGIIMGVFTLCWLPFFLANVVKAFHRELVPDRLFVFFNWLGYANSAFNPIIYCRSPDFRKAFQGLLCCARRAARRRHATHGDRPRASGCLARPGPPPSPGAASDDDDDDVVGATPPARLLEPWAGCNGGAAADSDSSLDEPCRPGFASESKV
Experimental: as §1, §5, §2, §3, §4

EC50 [1] | beta-3 (IA) maximal response relative to isoproterenol [1] | EC50 [2] | beta-2 (IA) maximal response relative to isoproterenol [2] | EC50 [3] | beta-1 (IA) maximal response relative to isoproterenol [3] | Molecule
3 nM | (0.95) | 2000 nM | (0.43) | 12000 nM | (0.71) | CCOC(=O)CN(C(C)C)S(=O)(=O)c1ccc(N2CCC(NC[C@H](O)c3ccc(O)c(NS(C)(=O)=O)c3)CC2)cc1 [Example 44]
5 nM | (0.91) |  | (0.15) | 10000 nM | (0.88) | CS(=O)(=O)Nc1cc([C@@H](O)CNC2CCN(c3ccc(S(=O)(=O)N(CC(=O)O)Cc4cc(F)ccc4F)cc3)CC2)ccc1O [Example 63, 2-{(2,5-Difluorobenzyl)[(4-{4-[((2R)-2-hydroxy-2-{4-hydroxy-3-[(methylsulfonyl)-amino]phenyl}ethyl)amino]-1-piperidinyl}phenyl)sulfonyl]amino}acetic acid]
6 nM | (0.85) |  | (0.18) |  | (0.18) | COC(=O)CNS(=O)(=O)c1ccc(N2CCC(NC[C@H](O)c3ccc(O)c(NS(C)(=O)=O)c3)CC2)cc1 [Example 57, Methyl 2-{[(4-{4-[((2R)-2-Hydroxy-2-{4-hydroxy-3-[(methylsulfonyl)amino]-phenyl}ethyl)amino]-1-piperidinyl}phenyl)sulfonyl]amino}acetate]
30 nM | (1) |  | (0.23) | 10000 nM | (0.42) | CS(=O)(=O)Nc1cc([C@@H](O)CNC2CCN(c3ccc(S(=O)(=O)N4CCC[C@H]4C(=O)O)cc3)CC2)ccc1O [Example 39, (2S)-1-[(4-{4-[((2R)-2-Hydroxy-2-{4-hydroxy-3-[(methylsulfonyl)amino]-phenyl}ethyl)amino]-1-piperidinyl}phenyl)sulfonyl]-2-pyrrolidinecarboxylic Acid]
2 nM | (1) | 2000 nM | (0.24) | 800 nM | (0.58) | CS(=O)(=O)Nc1cc([C@@H](O)CNC2CCN(c3ccc(S(=O)(=O)N4CCCC4)cc3)CC2)ccc1O [Example 41, N-{2-Hydroxy-5-[(1R)-1-hydroxy-2-({1-[4-(1-pyrrolidinylsulfonyl)phenyl]-piperidinyl}-4-amino)ethyl]phenyl}methanesulfonamide]

The next lines start with the molecule.

Molecule | EC50 [1] | beta-3 (IA) maximal response relative to isoproterenol [1] | EC50 [2] | beta-2 (IA) maximal response relative to isoproterenol [2] | EC50 [3] | beta-1 (IA) maximal response relative to isoproterenol [3]
CCOC(=O)CN(C)S(=O)(=O)c1ccc(N2CCC(NC[C@H](O)c3ccc(O)c(NS(C)(=O)=O)c3)CC2)cc1 [Example 25, [(4-{4-[(2R)-2-Hydroxy-2-(4-hydroxy-3-methanesulfonylamino-phenyl)-ethylamino]-piperidin-1-yl}-benzenesulfonyl)-methyl-amino]-acetic Acid Ethyl Ester] | 52 nM | (1) | 1430 nM | (0.37) | 1000 nM | (0.63)
CS(=O)(=O)Nc1cc(C(O)CNC2CCN(c3ccc(S(=O)(=O)N4CCCC4C(=O)O)cc3)CC2)ccc1O (centres unmarked) [Example 18, 1-(4-{4-[2-Hydroxy-2-(4-hydroxy-3-methanesulfonylamino-phenyl)-ethylamino]-piperidin-1-yl}-benzenesulfonyl)-pyrrolidine-2-carboxylic Acid] | 41 nM | (0.99) | 1000 nM | (0.55) |  | (0.29)
CC(C)CNS(=O)(=O)c1ccc(N2CCC(NC[C@H](O)c3ccc(O)c(NS(C)(=O)=O)c3)CC2)cc1 [Example 27, 4-{4-[(2R)-2-Hydroxy-2-(4-hydroxy-3-methanesulfonylamino-phenyl)-ethylamino]-piperidin-1-yl}-N-isobutyl-benzenesulfonamide] | 2 nM | (1) | 540 nM | (0.29) | 420 nM | (0.22)
CS(=O)(=O)Nc1cc(C(O)CNC2CCN(c3ccc(S(=O)(=O)NCc4ccccc4)cc3)CC2)ccc1O (centres unmarked) [Example 5, N-Benzyl-4-{4-[2-hydroxy-2-(4-hydroxy-3-methanesulfonylamino-phenyl)-ethylamino]-piperidin-1-yl}-benzenesulfonamide] | 16 nM | (0.98) |  | (0.07) | 2200 nM | (0.59)
CCCCN(CC(=O)O)S(=O)(=O)c1ccc(N2CCC(NC[C@H](O)c3ccc(O)c(NS(C)(=O)=O)c3)CC2)cc1 [Example 20, [Butyl-(4-{4-[(2R)-2-hydroxy-2-(4-hydroxy-3-methanesulfonylamino-phenyl)-ethylamino]-piperidin-1-yl}-benzenesulfonyl)-amino]-acetic Acid] | 10 nM | (1) | 10000 nM | (0.3) | 10000 nM | (0.4)
CCOC(=O)[C@@H]1CCCN1S(=O)(=O)c1ccc(N2CCC(NC[C@H](O)c3ccc(O)c(NS(C)(=O)=O)c3)CC2)cc1 [Example 36, Ethyl (2S)-1-[(4-{4-[((2R)-2-Hydroxy-2-{4-hydroxy-3-[(methylsulfonyl)amino]phenyl}ethyl)amino]-1-piperidinyl}phenyl)sulfonyl]-2-pyrrolidinecarboxylate] | 9 nM | (1) | 720 nM | (0.19) | 4800 nM | (0.85)
CC(C)NS(=O)(=O)c1ccc(N2CCC(NC[C@H](O)c3ccc(O)c(NS(C)(=O)=O)c3)CC2)cc1 [Example 29, 4-{4-[(2R)-2-Hydroxy-2-(4-hydroxy-3-methanesulfonylamino-phenyl)-ethylamino]-piperidin-1-yl}-N-isopropyl-benzenesulfonamide] | 7 nM | (1.3) | 2900 nM | (0.48) | 2000 nM | (0.57)
CCOC(=O)CN(CC1CC1)S(=O)(=O)c1ccc(N2CCC(NC[C@H](O)c3ccc(O)c(NS(C)(=O)=O)c3)CC2)cc1 [Example 28, [Cyclopropylmethyl-(4-{4-[(2R)-2-hydroxy-2-(4-hydroxy-3-methanesulfonylamino-phenyl)-ethylamino]-piperidin-1-yl}-benzenesulfonyl)-amino]-acetic Acid Ethyl Ester] | 2 nM | (0.94) | 6600 nM | (0.85) |  | (0.24)
1-(4-{4-[2-Hydroxy-2-(4-hydroxy-3-methanesulfonylmethyl-phenyl)-ethylamino]-piperidin-1-yl}-benzenesulfonylamino)-cyclopentane Carboxylic Acid Ethyl Ester [Example 40] | 4 nM | (1.2) | 40 nM | (0.31) | 1900 nM | (0.45)
